Several values for one entry are separate records, joined by “and”; a condition that tells them apart may be missing. Equal entries are not always repeated. Where two headings read alike, the source gives them in different places.
Assays:
[1] = Dose linearity of imepitoin after oral dosing; type: in vivo, beagle dogs; conditions: for Cmax / Tmax: both, beagle, dog, plasma, po; for Tlag obs: enteric-coated capsules, mean ± SEM, n=6
[2] = Excretion balance of [14C] imepitoin after oral and intravenous dosing; type: in vivo, beagle dogs; conditions: for Fraction excreted, Total / Fraction excreted, Urine + Cage wash / Fraction excreted, Feces: cumulative radioactivity, mean (CV %)
plasma protein [3] = assay: In vitro plasma protein binding; type: in vitro ADME; conditions: male, human
plasma protein [4] = assay: In vitro plasma protein binding; type: in vitro ADME, beagle dogs; conditions: beagle, dog, heparinized plasma, mean ± SEM, n=3
plasma protein [5] = assay: In vitro plasma protein binding; type: in vitro ADME, rats; conditions: rat
plasma protein [6] = assay: In vivo plasma protein binding in dogs dosed with [14C] imepitoin; type: in vitro ADME, beagle dogs
plasma proteins = assay: Reversibility of protein binding; type: in vitro ADME; conditions: human plasma, incubation up to 2 h at 37 °C, TCA precipitation
CYP1A1 = CYP1A1 (Homo sapiens, UniProt P04798); assay: In vitro enzyme inhibition, recombinant CYP, fluorescent metabolites; type: in vitro ADME
CYP1A1, sequence (P04798 whole entry): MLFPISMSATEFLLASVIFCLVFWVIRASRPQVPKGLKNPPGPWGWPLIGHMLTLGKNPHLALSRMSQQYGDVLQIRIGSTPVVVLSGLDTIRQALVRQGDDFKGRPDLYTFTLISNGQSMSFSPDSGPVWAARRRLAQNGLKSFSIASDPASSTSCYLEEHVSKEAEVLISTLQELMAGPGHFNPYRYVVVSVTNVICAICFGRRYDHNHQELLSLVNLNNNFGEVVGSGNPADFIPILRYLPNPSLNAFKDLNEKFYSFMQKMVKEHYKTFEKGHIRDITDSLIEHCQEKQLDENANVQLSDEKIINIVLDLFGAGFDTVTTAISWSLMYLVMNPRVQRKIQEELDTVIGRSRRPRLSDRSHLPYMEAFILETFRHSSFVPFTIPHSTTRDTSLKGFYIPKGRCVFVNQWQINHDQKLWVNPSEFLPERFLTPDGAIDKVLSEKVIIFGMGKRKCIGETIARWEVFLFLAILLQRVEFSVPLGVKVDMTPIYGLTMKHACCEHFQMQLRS

CYP1A2 = CYP1A2 (Homo sapiens, UniProt P05177); assay: as above; type: in vitro ADME
CYP1A2, sequence (P05177 whole entry): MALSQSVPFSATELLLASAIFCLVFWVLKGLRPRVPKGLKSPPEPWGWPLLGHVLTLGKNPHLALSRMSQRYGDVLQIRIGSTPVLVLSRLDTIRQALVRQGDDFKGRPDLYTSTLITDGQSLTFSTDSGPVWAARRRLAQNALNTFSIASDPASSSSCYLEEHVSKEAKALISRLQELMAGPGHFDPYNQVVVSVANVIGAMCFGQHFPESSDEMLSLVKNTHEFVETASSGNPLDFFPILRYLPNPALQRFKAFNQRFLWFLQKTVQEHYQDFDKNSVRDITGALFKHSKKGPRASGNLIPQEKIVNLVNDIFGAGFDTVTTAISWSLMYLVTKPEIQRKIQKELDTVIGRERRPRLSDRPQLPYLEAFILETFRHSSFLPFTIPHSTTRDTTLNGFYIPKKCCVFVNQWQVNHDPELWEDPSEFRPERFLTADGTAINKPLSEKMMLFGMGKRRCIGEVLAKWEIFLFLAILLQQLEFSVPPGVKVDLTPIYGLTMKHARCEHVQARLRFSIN

CYP2A6 = CYP2A6 (Homo sapiens, UniProt P11509); assay: as above; type: in vitro ADME
CYP2A6, sequence (P11509 whole entry): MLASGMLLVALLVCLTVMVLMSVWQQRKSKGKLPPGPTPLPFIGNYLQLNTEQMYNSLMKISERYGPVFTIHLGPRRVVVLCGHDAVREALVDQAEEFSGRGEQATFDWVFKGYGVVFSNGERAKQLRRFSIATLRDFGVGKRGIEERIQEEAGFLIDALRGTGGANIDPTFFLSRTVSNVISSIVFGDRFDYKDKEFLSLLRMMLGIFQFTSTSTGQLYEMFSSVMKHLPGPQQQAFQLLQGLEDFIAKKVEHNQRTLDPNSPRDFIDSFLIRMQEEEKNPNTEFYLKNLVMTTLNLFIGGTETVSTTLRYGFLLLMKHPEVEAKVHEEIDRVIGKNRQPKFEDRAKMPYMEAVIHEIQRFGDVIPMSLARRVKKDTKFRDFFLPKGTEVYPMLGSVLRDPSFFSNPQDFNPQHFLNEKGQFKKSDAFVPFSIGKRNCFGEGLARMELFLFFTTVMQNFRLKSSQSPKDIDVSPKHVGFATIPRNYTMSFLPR

CYP2C8 = CYP2C8 (Homo sapiens, UniProt P10632); assay: as above; type: in vitro ADME; conditions: up to the highest concentration tested (100 μM)
CYP2C8, sequence (P10632 whole entry): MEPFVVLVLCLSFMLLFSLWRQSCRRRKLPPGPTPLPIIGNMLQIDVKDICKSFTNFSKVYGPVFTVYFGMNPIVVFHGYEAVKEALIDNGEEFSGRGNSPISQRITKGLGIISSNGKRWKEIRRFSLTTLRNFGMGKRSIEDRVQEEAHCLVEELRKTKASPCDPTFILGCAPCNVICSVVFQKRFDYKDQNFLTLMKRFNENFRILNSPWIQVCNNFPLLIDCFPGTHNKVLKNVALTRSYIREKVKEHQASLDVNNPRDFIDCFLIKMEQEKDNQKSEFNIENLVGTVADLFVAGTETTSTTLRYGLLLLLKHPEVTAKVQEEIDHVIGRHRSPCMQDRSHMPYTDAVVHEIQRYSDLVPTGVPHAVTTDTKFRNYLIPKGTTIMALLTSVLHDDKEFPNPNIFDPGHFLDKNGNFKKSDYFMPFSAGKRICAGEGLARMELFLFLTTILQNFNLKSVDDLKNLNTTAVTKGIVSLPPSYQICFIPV

CYP2C19 = CYP2C19 (Homo sapiens, UniProt P33261); assay: as above; type: in vitro ADME
CYP2C19, sequence (P33261 whole entry): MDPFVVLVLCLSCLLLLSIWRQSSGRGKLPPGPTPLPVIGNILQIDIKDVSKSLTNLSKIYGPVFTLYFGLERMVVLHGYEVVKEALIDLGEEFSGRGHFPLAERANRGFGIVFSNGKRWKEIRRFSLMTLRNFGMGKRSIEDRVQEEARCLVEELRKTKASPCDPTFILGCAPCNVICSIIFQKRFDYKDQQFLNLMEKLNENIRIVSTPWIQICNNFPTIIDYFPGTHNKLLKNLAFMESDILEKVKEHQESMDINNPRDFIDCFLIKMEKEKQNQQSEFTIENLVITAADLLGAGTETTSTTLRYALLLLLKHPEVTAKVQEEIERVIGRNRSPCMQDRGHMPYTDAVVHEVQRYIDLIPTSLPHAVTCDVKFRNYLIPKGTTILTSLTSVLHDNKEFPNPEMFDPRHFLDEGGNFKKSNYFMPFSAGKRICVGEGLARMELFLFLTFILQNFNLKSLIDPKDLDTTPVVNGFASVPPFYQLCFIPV

CYP3A4 = CYP3A4 (Homo sapiens, UniProt P08684); assay: as above; type: in vitro ADME; conditions: up to the highest concentration tested (100 μM)
CYP3A4, sequence (P08684 whole entry): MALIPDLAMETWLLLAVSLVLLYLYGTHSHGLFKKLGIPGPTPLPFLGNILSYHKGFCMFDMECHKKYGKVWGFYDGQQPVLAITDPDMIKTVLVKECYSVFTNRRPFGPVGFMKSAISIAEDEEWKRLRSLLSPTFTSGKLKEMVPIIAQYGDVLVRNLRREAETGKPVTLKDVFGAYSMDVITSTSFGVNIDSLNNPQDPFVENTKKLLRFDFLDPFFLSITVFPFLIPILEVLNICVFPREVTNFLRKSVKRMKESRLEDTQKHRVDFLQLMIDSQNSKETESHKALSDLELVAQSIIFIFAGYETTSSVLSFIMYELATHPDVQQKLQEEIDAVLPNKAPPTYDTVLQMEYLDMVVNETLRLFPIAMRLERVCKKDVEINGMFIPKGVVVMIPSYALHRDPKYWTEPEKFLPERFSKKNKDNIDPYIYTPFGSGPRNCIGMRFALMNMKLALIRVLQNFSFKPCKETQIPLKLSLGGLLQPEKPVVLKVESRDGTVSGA

CYP2A = assay: In vivo enzyme induction: ethoxycoumarin O-deethylase; set-up: species or system Wistar rats; conditions: rats, 3–100 mg/kg p.o. once daily 7 days
CYP2D1 = assay: In vivo enzyme induction: dextromethorphan O-demethylase; set-up: species or system Wistar rats; conditions: rats, 3–100 mg/kg p.o. once daily 7 days
CYP2E1 = assay: In vivo enzyme induction: nitrophenol hydroxylase; set-up: species or system Wistar rats; conditions: rats, 3–100 mg/kg p.o. once daily 7 days
CYP3A = assay: In vivo enzyme induction: erythromycin N-demethylase; set-up: species or system Wistar rats; conditions: rats, 3–100 mg/kg p.o. once daily 7 days
NAT1 = assay: In vivo enzyme induction: N-acetyltransferase, p-aminobenzoic acid; set-up: species or system Wistar rats; conditions: rats, 3–100 mg/kg p.o. once daily 7 days
NAT2 = assay: In vivo enzyme induction: N-acetyltransferase, procainamide; set-up: species or system Wistar rats; conditions: rats, 3–100 mg/kg p.o. once daily 7 days
[7] = test system: pentylenetetrazole-induced convulsions; conditions: dogs, ref Löscher et al., 2004, cited from earlier work
[8] = dogs, 5 mg/kg, at time of seizure induction; ref Löscher et al., 2004; cited from earlier work
[9] = ref Heinecke & Thiel, 2001; cited from earlier work
[10] = ref Heinecke & Thiel, 2001; cited from earlier work; remark: listed apart in the source
CYP2C9 = CYP2C9 (Homo sapiens, UniProt P11712); assay: In vitro enzyme inhibition, recombinant CYP, fluorescent metabolites
CYP2C9, sequence (P11712 whole entry): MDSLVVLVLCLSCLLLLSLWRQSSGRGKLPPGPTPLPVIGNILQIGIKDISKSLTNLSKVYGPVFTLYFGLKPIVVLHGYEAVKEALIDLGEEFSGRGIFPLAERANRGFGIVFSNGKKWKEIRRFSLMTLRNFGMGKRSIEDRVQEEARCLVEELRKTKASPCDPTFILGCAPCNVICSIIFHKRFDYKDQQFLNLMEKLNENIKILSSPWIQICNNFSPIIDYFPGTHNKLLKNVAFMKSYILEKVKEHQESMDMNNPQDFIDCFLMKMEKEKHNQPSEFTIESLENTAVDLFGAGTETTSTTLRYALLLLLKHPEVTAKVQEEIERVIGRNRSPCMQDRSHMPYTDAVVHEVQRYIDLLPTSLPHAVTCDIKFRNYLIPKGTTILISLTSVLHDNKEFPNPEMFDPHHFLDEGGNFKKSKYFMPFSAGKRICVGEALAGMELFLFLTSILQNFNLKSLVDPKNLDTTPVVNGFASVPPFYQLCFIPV

O=C1N=C(N2CCOCC2)CN1c1ccc(Cl)cc1 [Imepitoin, 1-(4-chlorophenyl)-4-morpholino-imidazolin-2-one]
Cmax ([1]; 10 mg/kg): 1820 ± 920 ng/mL | Tmax ([1]; 10 mg/kg): 8.67 ± 3.1 h | Cmax ([1]; 20 mg/kg): 3500 ± 1070 ng/mL | Tmax ([1]; 20 mg/kg): 10.7 ± 4 h | Cmax ([1]; 50 mg/kg): 6410 ± 1750 ng/mL | Tmax ([1]; 50 mg/kg): 18 ± 3.8 h | Tmax ([1]; 100 mg/kg): 8.67 ± 3.1 h | Tlag obs ([1]; single dose 10 mg/kg p.o.): 3.67 ± 0.92 h | Tlag obs ([1]; single dose 20 mg/kg p.o.): 5.67 ± 0.95 h | Tlag obs ([1]; single dose 50 mg/kg p.o.): 4.17 ± 1.05 h | Tlag obs ([1]; single dose 100 mg/kg p.o.): 2.25 ± 0.94 h | tolerability, clinical adverse events ([2]; 20 mg/kg p.o. (3 male, 3 female dogs) and 1 mg/kg i.v. (3 female dogs)): well tolerated | total radioactivity excreted urinary ([2]; after oral dosing, range males/females): 27–38% | Fraction excreted, Total ([2]; females, 1 mg/kg i.v., 0–8 h): 30.62 (n < 3) % of intravenous dose | Fraction excreted, Urine + Cage wash ([2]; females, 1 mg/kg i.v., 0–8 h): 30.62 (n < 3) % of intravenous dose | Fraction excreted, Feces ([2]; females, 1 mg/kg i.v., 0–24 h): 54.74 (n < 3) % of intravenous dose | Fraction excreted, Total ([2]; females, 1 mg/kg i.v., 0–24 h): 74.07 (33.4) % of intravenous dose | Fraction excreted, Urine + Cage wash ([2]; females, 1 mg/kg i.v., 0–24 h): 37.58 (19.1) % of intravenous dose | Fraction excreted, Feces ([2]; females, 1 mg/kg i.v., 0–48 h): 68.33 (n < 3) % of intravenous dose | Fraction excreted, Total ([2]; females, 1 mg/kg i.v., 0–48 h): 85.43 (37.2) % of intravenous dose | Fraction excreted, Urine + Cage wash ([2]; females, 1 mg/kg i.v., 0–48 h): 39.87 (19.9) % of intravenous dose | Fraction excreted, Total ([2]; females, 1 mg/kg i.v., 0–264 h): 104.43 (4.4) % of intravenous dose | Fraction excreted, Feces ([2]; females, 20 mg/kg p.o., 0–8 h): 0.09 (n < 3) % of oral dose | Fraction excreted, Total ([2]; females, 20 mg/kg p.o., 0–8 h): 8.04 (n < 3) % of oral dose | Fraction excreted, Urine + Cage wash ([2]; females, 20 mg/kg p.o., 0–8 h): 7.95 (n < 3) % of oral dose | Fraction excreted, Feces ([2]; females, 20 mg/kg p.o., 0–24 h): 40.62 (n < 3) % of oral dose | Fraction excreted, Total ([2]; females, 20 mg/kg p.o., 0–24 h): 63.58 (n < 3) % of oral dose | Fraction excreted, Urine + Cage wash ([2]; females, 20 mg/kg p.o., 0–24 h): 22.96 (n < 3) % of oral dose | Fraction excreted, Feces ([2]; females, 20 mg/kg p.o., 0–48 h): 45.64 (22.0) % of oral dose | Fraction excreted, Total ([2]; females, 20 mg/kg p.o., 0–48 h): 76.52 (20.8) % of oral dose | Fraction excreted, Urine + Cage wash ([2]; females, 20 mg/kg p.o., 0–48 h): 30.88 (23.3) % of oral dose | Fraction excreted, Total ([2]; females, 20 mg/kg p.o., 0–264 h): 93.84 (8.4) % of oral dose | Fraction excreted, Total ([2]; males, 20 mg/kg p.o., 0–8 h): 0.58 (n < 3) % of oral dose | Fraction excreted, Urine + Cage wash ([2]; males, 20 mg/kg p.o., 0–8 h): 0.58 (n < 3) % of oral dose | Fraction excreted, Feces ([2]; males, 20 mg/kg p.o., 0–24 h): 34.41 (92.2) % of oral dose | Fraction excreted, Total ([2]; males, 20 mg/kg p.o., 0–24 h): 51.11 (66.2) % of oral dose | Fraction excreted, Urine + Cage wash ([2]; males, 20 mg/kg p.o., 0–24 h): 16.70 (20.9) % of oral dose | Fraction excreted, Feces ([2]; males, 20 mg/kg p.o., 0–48 h): 75.65 (12.3) % of oral dose | Fraction excreted, Total ([2]; males, 20 mg/kg p.o., 0–48 h): 97.51 (6.4) % of oral dose | Fraction excreted, Urine + Cage wash ([2]; males, 20 mg/kg p.o., 0–48 h): 21.86 (20.5) % of oral dose | Fraction excreted, Total ([2]; males, 20 mg/kg p.o., 0–264 h): 104.74 (2.8) % of oral dose | total radioactivity excreted within 48 h ([2]; urine + feces, range over dosing groups): 76–97% and 76.5–97.5% | fraction unbound at 15 min, 0.1 μg/mL (plasma protein [3]; heparinized plasma): 0.43 | fraction unbound at 15 min, 1 μg/mL (plasma protein [3]; heparinized plasma): 0.41 | fraction unbound at 15 min, 10 μg/mL (plasma protein [3]; heparinized plasma): 0.43 | fraction unbound at 15 min (plasma protein [3]; plasma (heparinized)): 0.41 to 0.43 | fraction unbound at 15 min, 10 μg/mL (plasma protein [4]): 0.44 | fraction unbound at 15 min, 0.1 μg/mL (plasma protein [5]; heparinized plasma): 0.49 | fraction unbound at 15 min, 1 μg/mL (plasma protein [5]; heparinized plasma): 0.5 ± 0.0064 | fraction unbound at 15 min, 10 μg/mL (plasma protein [5]; heparinized plasma): 0.5 ± 0.011 | fraction unbound at 15 min (plasma protein [5]; plasma (heparinized, pool of five fasted animals)): 0.49 to 0.5 | in vivo plasma protein binding (plasma protein [6]; 2 h after 20 mg/kg p.o. or 1 mg/kg i.v.): 59–69% | in vivo plasma protein binding (plasma protein [6]; 8 h after 20 mg/kg p.o. or 1 mg/kg i.v.): 62–72% | In vivo protein binding (plasma protein [6]; female dogs, 1 mg/kg i.v., 2 h after dosing, mean ± SEM): 59 ± 0.69% | In vivo protein binding (plasma protein [6]; female dogs, 1 mg/kg i.v., 4 h after dosing, mean ± SEM): 66 ± 2.66% | In vivo protein binding (plasma protein [6]; female dogs, 1 mg/kg i.v., 8 h after dosing, mean ± SEM): 72 ± 1.33% | In vivo protein binding (plasma protein [6]; female dogs, 20 mg/kg p.o., 2 h after dosing): 69 (n < 3) % | In vivo protein binding (plasma protein [6]; female dogs, 20 mg/kg p.o., 4 h after dosing, mean ± SEM): 66 ± 0.69% | In vivo protein binding (plasma protein [6]; female dogs, 20 mg/kg p.o., 8 h after dosing, mean ± SEM): 62 ± 7.68% | In vivo protein binding (plasma protein [6]; male dogs, 20 mg/kg p.o., 2 h after dosing): 60 (n < 3) % | In vivo protein binding (plasma protein [6]; male dogs, 20 mg/kg p.o., 4 h after dosing, mean ± SEM): 63 ± 1.62% | In vivo protein binding (plasma protein [6]; male dogs, 20 mg/kg p.o., 8 h after dosing, mean ± SEM): 67 ± 2.71% | radioactivity found in the washed precipitate (covalent binding) (plasma proteins): less than 0.5% | IC50 (CYP1A1): 55 µM | IC50 (CYP1A2): > 100 µM | Inhibition of the specific cytochrome P450 isoform IC50, 1A2 (CYP1A2; recombinant human CYP1A2): did not influence | IC50 (CYP2A6): > 100 µM | Inhibition of the specific cytochrome P450 isoform IC50, 2A6 (CYP2A6; recombinant human CYP2A6): did not influence | influence on activity of CYP2C8 (CYP2C8): did not influence | IC50 (CYP2C19): > 100 µM | Inhibition of the specific cytochrome P450 isoform IC50, 2C19 (CYP2C19; recombinant human CYP2C19): did not influence | influence on activity of CYP3A4 (CYP3A4): did not influence | induction of CYP2A (CYP2A): did not induce | induction of CYP2D1 (CYP2D1): did not induce | induction of CYP2E1 (CYP2E1): did not induce | induction of CYP3A (CYP3A): did not induce | induction of NAT1 (NAT1): did not induce | induction of NAT2 (NAT2): did not induce | elevation of threshold for pentylenetetrazole-induced convulsions ([7]; 5 mg/kg orally twice daily, 5 mg/kg): significant increase | elevation of threshold for pentylenetetrazole-induced convulsions ([7]; 40 mg/kg twice daily, 40 mg/kg): much stronger elevation of threshold | elevation of threshold for pentylenetetrazole-induced convulsions ([7]; 40 mg/kg twice daily, listed as imepitoin, 40 mg/kg): greatly enhanced the drug-induced effect | development of tolerance toward anticonvulsant activity ([7]; repeated administration for 28 days): no development of tolerance | peak plasma concentration [8]: 1400 to 1700 ng/mL | solubility in acidic media such as gastric fluid [9]: more readily soluble in acidic media | solubility in aqueous media [9]: very low solubility in aqueous media | lipophilicity [10]: high lipophilicity | IC50 (CYP2C9): > 100 µM | Inhibition of the specific cytochrome P450 isoform IC50, 2C9 (CYP2C9; recombinant human CYP2C9): did not influence

From paper PMC4280904 (Journal of Veterinary Pharmacology and Therapeutics, 2014)
